The results in this text go back to patent US11117898B2, “Pyrazolo-heteroaryl derivative, preparation method and medical use thereof” (Jiangsu Hengrui Medicine Co., Ltd., priority 2016, dated 2021).

SMILES strings stand for the structures.

Series [1] addresses human TLR7 (Homo sapiens (Human), UniProt Q9NYK1). As to the kind of experiment: Agonistic activity on human TLR7 in HEK-Blue hTLR7 stably transfected cells. The class given is cell-based. The following applies: for EC50: OD 620 nm. How it is done:
The activation effect of the compounds of the present invention on the hTLR7 protein expressed by the HEK-Blue™ hTLR7 stably transfected cells was determined by the following experimental method:
A bag of HEK-Blue detection dry powder was dissolved in 50 ml of water free of endotoxin, and the solution was then placed in an incubator at 37° C. for 10 minutes followed by sterile filtration to prepare a HEK-Blue detection medium. The compound was firstly formulated into a 20 mM stock solution, then diluted with pure DMSO to a maximum concentration of 6×10^6 nM, and a total of 10 points were obtained by a 3-fold gradient dilution.
The above formulated compound was firstly diluted 20-fold with the medium, then 20 μl of the diluted compound were added to each well. The supernate was removed from the HEK-Blue™ hTLR7 cells, to which 2-5 ml of pre-warmed PBS were then added. The cells were placed in an incubator for 1-2 minutes, gently pipetted, and counted by trypan blue staining. The cells were re-suspended in the HEK-Blue detection medium to adjust the concentration to 2.2×10^5 cells/ml. 180 μl of cells were added to the above 96-well plate already added with 20 μl of the compounds, and incubated at 37° C. for 6-16 hours.
The activation effect of the compounds of the present invention on human TLR7 can be determined by the above test, and the obtained EC50 values are shown in Table 1.

Series [2] deals with human TLR8 (Homo sapiens (Human), UniProt Q9NR97). As to the kind of experiment: Agonistic activity on human TLR8 in HEK-Blue hTLR8 stably transfected cells. The settings on record: for EC50: OD 620 nm. Format: cell-based. The method, then:
The activation effect of the compounds of the present invention on the hTLR8 protein expressed by the HEK-Blue™ hTLR8 stably transfected cells was determined by the following experimental method:
A bag of HEK-Blue detection dry powder was dissolved in 50 ml of water free of endotoxin, and the solution was then placed in an incubator at 37° C. for 10 minutes followed by sterile filtration to prepare a HEK-Blue detection medium. The compound was firstly formulated into a 20 mM stock solution, then diluted with pure DMSO to a maximum concentration of 6×10^6 nM, and a total of 10 points were obtained by a 3-fold gradient dilution. The compound was firstly diluted 20-fold with the medium, then 20 μl of the diluted compound were added to each well.
The supernate was removed from the HEK-Blue™ hTLR8 cells, to which 2-5 ml of pre-warmed PBS were then added. The cells were placed in an incubator for 1-2 minutes, gently pipetted, and counted by trypan blue staining. The cells were re-suspended in the HEK-Blue detection medium to adjust the concentration to 2.2×10^5 cells/ml. 180 μl of cells were added to the above 96-well plate already added with 20 μl of the compounds, and incubated at 37° C. for 6-16 hours.
The activation effect of the compounds of the present invention on human TLR8 can be determined by the above test, and the obtained EC50 values are shown in Table 2.

Series [3] relates to PBMC. Nature of the series: Stimulation of the secretion of IFN-α from peripheral blood mononuclear cells (PBMC). The class given is cell-based, human. The settings on record: minimal effective concentration: lowest concentration giving cytokine level at least 3 times the minimum detection limit; 24 hours incubation. How it is done: The ability of the compounds of the present invention to stimulate the secretion of IFN-α from PBMC was determined by the following experimental method:
The compound was diluted with pure DMSO to a maximum concentration of 5 mM, and a total of 9 points were obtained by a 4-fold gradient dilution. 4 μl of the compound were then added to 196 μl of RMPI 1640 medium containing 10% FBS and mixed well. 50 μl of the mixture were taken from each well and added to a new 96-well plate.
All reagents were equilibrated to room temperature. 60 ml of blood and PBS+2% FBS were added to a 250 ml culture flask, gently pipetted, mixed well and diluted. 15 ml of lymphocyte separation solution Ficoll-Paque PREMIUM and then 30 ml of diluted blood were added to a 50 ml PBMC centrifuge tube SepMate™-50. The mixture was centrifuged at 1200 g for 10 minutes at room temperature. The supernatant was taken and then centrifuged at 300 g for 8 minutes. The cells were re-suspended in the RMPI 1640 medium containing 10% FBS and counted, and the number of PBMCs was adjusted to 3.33×10^6 cells/ml. 150 μl of the cell solution were added to the plate added with the compound, and incubated in an incubator at 37° C., in 5.0% CO2 for 24 hours.
The cell culture plate was placed in a centrifuge, and centrifuged at 1200 rpm for 10 minutes at room temperature. 150 μl of the supernatant were taken from each well. The reagents in the human IFN-α kit were first equilibrated to normal temperature. The anti-IFN-α-Eu^3+-Cryptate conjugate and the anti-IFN-α-d2-conjugate were formulated in the dark according to the kit instructions, and both of them were mixed well with the conjugate buffer at a ratio of 1:40. 16 μl of the supernatant obtained by centrifugation were then added to each well. 2 μl of anti-IFN-α-Eu^3+-Cryptate conjugate and anti-IFN-α-d2-conjugate formulated just now were then added to each well. The plate was shaken and mixed well, and incubated in the dark at room temperature for 3 hours.
The PHERAStar was read in the HTRF mode. The lowest compound concentration that stimulated cytokine levels of at least 3 times higher than the minimum detection limit was defined as the minimal effective concentration (MEC) value of the compound in the cytokine stimulation test.
The ability of the compounds of the present invention to stimulate the secretion of IFN-α from PBMC was determined by the above test, and the obtained MEC values are shown in Table 3.

Series [4] concerns the target CYP2D6 (Homo sapiens (Human), UniProt P10635). As to the kind of experiment: Inhibition of the enzyme activity of CYP2D6 in human liver microsomes. The following applies: probe substrate dextromethorphan. Format: in vitro ADME. The method, then: The effect of the compounds of the present invention on the enzyme activity of CYP2D6 in human liver microsomes was determined by the following experimental method:
100 mM PBS buffer was formulated, which was then used to formulate 2.5 mg/ml microsome solution and 5 mM NADPH solution. The 5× concentration of the compound working solution was diluted with PBS gradient (150, 50, 15, 5, 1.5, 0.15, 0.015, 0 μM). The 5× concentration of quinidine working solution was diluted with PBS gradient (150, 50, 15, 5, 1.5, 0.15, 0.015, 0 μM). Dextromethorphan working solution was diluted with PBS to a concentration of 50 μM.
(§1) 20 μl of 2.5 mg/ml microsome solution, 20 μl of 50 μM testosterone working solution, 20 μl of MgCl2 solution and 20 μl of the compound working solution (150, 50, 15, 5, 1.5, 0.15, 0.015, 0 μM, different reaction systems for each concentration) were taken respectively and mixed well. For the positive control group, the compound was replaced with the same concentration of quinidine. The mixture together with 5 mM NADPH solution were pre-incubated at 37° C. for 5 minutes. After 5 minutes, 20 μl of NADPH were added to each well, the reaction was started and incubated for 30 minutes. All the incubated samples were present in duplicate. After 30 minutes, 250 μl of acetonitrile containing internal standard were added to all samples, mixed well, shaken at 800 rpm for 10 minutes, and then centrifuged at 3700 rpm for 10 minutes. 80 μl of the supernatant were taken and analyzed by LC-MS/MS.
The data were calculated by Graphpad Prism to obtain the IC50 values of the compounds on the metabolite site of CYP2D6.
In general terms: Microsomes from liver hold many membrane-bound enzymes, among them those of drug oxidation.

Series [5] addresses T1, CYP3A4 (Homo sapiens (Human), UniProt P08684). As to the kind of experiment: Inhibition of the midazolam metabolite site of CYP3A4 in human liver microsomes. The class given is in vitro ADME. The following applies: probe substrate midazolam. How it is done: The effect of the compounds of the present invention on the enzyme activity of midazolam metabolite site of CYP3A4 in human liver microsomes was determined by the following experimental method:
(§2) 100 mM PBS buffer was formulated, which was then used to formulate 2.5 mg/ml microsome solution and 5 mM NADPH solution. The 5× concentration of the compound working solution was diluted with PBS gradient (150, 50, 15, 5, 1.5, 0.15, 0.015, 0 μM). The 5× concentration of ketoconazole working solution was diluted with PBS gradient (150, 50, 15, 5, 1.5, 0.15, 0.015, 0 μM). Dextromethorphan working solution was diluted with PBS to a concentration of 50 μM.
as §1, with “ketoconazole.” for “quinidine.”
The data were calculated by Graphpad Prism to obtain the IC50 values of the compounds on the midazolam metabolite site of CYP3A4.

The target of series [6] is T1, CYP3A4. Nature of the series: Inhibition of the testosterone metabolite site of CYP3A4 in human liver microsomes. The following applies: probe substrate testosterone. The class given is in vitro ADME. The method, then: The effect of the compounds of the present invention on the enzyme activity of testosterone metabolite site of CYP3A4 in human liver microsomes was determined by the following experimental method:
as §2
as §1, with “ketoconazole.” for “quinidine.”
The data were calculated by Graphpad Prism to obtain the IC50 values of the compounds on the testosterone metabolite site of CYP3A4.

CYP2D6, sequence (P10635 whole entry): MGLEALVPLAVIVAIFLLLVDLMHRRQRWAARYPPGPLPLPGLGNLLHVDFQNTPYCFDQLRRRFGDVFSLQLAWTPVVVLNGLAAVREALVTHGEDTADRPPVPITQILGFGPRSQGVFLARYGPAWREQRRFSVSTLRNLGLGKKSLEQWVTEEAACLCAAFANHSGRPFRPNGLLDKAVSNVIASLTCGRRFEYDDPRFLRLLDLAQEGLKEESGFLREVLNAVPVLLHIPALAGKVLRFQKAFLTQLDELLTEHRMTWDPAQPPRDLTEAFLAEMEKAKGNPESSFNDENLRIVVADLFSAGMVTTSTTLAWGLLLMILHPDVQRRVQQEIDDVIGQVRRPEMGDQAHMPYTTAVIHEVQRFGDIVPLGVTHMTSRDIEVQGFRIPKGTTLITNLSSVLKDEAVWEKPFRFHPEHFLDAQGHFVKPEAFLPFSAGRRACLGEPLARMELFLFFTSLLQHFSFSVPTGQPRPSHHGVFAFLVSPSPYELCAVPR
human TLR7, sequence (Q9NYK1 27-1049): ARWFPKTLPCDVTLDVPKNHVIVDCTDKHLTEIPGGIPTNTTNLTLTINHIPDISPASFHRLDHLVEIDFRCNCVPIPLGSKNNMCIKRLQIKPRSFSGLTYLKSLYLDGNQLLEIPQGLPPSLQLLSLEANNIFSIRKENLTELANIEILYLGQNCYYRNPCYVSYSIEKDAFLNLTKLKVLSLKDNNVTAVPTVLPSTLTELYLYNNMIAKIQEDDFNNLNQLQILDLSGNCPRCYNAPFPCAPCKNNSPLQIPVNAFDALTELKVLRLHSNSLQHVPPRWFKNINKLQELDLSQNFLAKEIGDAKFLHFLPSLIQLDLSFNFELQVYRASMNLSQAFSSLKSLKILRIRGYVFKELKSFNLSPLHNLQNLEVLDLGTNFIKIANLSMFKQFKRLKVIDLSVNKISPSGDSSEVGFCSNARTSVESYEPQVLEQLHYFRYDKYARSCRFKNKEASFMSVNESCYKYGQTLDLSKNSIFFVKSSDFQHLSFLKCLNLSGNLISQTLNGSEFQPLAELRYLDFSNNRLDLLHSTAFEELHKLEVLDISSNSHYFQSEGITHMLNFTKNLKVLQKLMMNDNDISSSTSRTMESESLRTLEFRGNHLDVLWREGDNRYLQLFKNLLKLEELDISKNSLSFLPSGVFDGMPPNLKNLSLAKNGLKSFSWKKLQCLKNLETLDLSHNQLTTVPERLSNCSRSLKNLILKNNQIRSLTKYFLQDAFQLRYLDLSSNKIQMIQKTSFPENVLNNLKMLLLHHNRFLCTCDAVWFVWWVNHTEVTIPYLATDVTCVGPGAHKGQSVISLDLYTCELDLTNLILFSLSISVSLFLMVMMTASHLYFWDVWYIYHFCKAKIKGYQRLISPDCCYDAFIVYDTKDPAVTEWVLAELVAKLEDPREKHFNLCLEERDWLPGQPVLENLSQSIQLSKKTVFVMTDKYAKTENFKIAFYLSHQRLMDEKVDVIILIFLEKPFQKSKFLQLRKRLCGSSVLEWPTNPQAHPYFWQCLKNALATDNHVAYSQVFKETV
T1 sequence (P08684 whole entry): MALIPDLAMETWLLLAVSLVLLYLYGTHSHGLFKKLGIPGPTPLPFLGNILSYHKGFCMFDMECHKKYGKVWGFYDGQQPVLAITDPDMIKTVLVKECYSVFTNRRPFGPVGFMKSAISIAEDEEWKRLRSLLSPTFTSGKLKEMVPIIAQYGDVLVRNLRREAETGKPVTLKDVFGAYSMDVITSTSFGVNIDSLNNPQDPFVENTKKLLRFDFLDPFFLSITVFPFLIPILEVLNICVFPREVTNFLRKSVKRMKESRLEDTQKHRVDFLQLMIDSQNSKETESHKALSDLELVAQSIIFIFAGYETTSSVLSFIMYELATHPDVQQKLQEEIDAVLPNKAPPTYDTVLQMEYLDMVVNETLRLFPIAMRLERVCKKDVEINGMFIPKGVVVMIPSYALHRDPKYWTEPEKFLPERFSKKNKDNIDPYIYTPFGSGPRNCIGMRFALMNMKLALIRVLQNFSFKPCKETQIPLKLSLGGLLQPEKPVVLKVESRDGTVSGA
human TLR8, sequence (Q9NR97 27-1041): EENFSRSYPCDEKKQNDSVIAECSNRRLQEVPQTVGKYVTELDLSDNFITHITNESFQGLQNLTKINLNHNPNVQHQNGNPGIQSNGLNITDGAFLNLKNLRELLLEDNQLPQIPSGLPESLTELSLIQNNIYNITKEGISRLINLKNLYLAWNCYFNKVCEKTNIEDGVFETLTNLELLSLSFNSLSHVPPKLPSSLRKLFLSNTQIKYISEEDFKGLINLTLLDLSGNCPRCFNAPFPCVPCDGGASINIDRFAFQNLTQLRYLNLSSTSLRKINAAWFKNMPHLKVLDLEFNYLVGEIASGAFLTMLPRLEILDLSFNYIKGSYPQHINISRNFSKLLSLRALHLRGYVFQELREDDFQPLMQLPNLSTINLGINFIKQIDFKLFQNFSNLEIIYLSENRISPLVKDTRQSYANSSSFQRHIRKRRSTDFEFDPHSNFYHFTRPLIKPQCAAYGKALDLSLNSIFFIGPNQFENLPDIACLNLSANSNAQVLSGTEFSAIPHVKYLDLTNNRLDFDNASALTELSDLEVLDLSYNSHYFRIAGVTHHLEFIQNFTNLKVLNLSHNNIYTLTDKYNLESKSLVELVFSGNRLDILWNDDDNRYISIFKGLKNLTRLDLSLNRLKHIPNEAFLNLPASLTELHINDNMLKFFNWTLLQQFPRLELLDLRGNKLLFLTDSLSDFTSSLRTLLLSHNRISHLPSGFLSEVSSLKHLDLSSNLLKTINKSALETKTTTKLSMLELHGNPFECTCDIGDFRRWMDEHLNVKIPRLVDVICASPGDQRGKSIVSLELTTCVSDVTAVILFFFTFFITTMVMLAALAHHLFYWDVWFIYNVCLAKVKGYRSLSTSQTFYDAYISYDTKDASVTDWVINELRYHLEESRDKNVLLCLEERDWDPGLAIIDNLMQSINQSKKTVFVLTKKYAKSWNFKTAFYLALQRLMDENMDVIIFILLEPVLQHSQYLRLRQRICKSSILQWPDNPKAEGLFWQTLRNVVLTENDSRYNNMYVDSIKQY

For `CCCCOc1nc(N)c2cnn(Cc3ccc(CN4CCCC4)cc3)c2n1` [Example 1, 6-Butoxy-1-(4-(pyrrolidin-1-ylmethyl)benzyl)-1H-pyrazolo[3,4-d]pyrimidin-4-amine], in series [1], the Emax (commonly the greatest response seen or fitted, relative to the assay's reference) is 100%. Moreover, in series [2], the Emax stood at 8% and the EC50 (in general, the concentration at which the effect is half-maximal) is over 30 µM. For the same compound, the “MEC to stimulate the secretion of IFN-α from PBMC” value in series [3] is on record as 6 nM. Moreover, in series [4], the 50% inhibitory concentration (IC50) – broadly, the concentration that inhibits the measured activity by half – is over 30 µM.

As to `CCCCOc1nc(N)c2cnn(Cc3cccc(CN4CCC4)c3)c2n1` [Example 5, 1-(3-(Azetidin-1-ylmethyl)benzyl)-6-butoxy-1H-pyrazolo[3,4-d]pyrimidin-4-amine], the “MEC to stimulate the secretion of IFN-α from PBMC” value in series [3] is listed as 41 nM.

Take `CCCCOc1nc(N)c2cnn(Cc3cccc(CN4CCCCC4)c3)c2n1` [Example 6, 6-Butoxy-1-(3-(piperidin-1-ylmethyl)benzyl)-1H-pyrazolo[3,4-d]pyrimidin-4-amine]: the values for the Emax in series [1] and in series [2] were 91% and 35%, respectively. Besides, the EC50 in series [1] is 0.233 µM; in series [2] it was over 6 µM. Besides, the concentration for half-maximal inhibition (IC50) amounted to 10 µM in series [5], 10 µM in series [4] and 3 µM in series [6].

In series [1], `COCC(C)Oc1nc(N)c2cnn(Cc3ccc(CN4CCCC4)cc3)c2n1` (stereo not shown) [Example 8, 6-((1-Methoxypropan-2-yl)oxy)-1-(4-(pyrrolidin-1-ylmethyl)benzyl)-1H-pyrazolo[3,4-d]pyrimidin-4-amine] displayed an Emax of 104% and an EC50 of 0.217 µM. Besides, in series [2], the maximum response (Emax) was 2% and the 50% effective concentration (EC50) was over 30 µM.

Consider `CCCCOc1nc(N)c2cnn(Cc3ccc(CN4CCCC4)c(F)c3)c2n1` [Example 9, 6-Butoxy-1-(3-fluoro-4-(pyrrolidin-1-ylmethyl)benzyl)-1H-pyrazolo[3,4-d]pyrimidin-4-amine], for which, in series [1], the maximal effect (Emax) turned out to be 96% and the concentration giving a half-maximal response (EC50) was determined as 0.128 µM.

`CCCCNc1nc(N)c2cnn(Cc3ccc(CN4CCCC4)cc3)c2n1` [Example 10, N^6-Butyl-1-(4-(pyrrolidin-1-ylmethyl)benzyl)-1H-pyrazolo[3,4-d]pyrimidine-4,6-diamine]: in series [1], the Emax was 79% and the half-maximal effective concentration (EC50) worked out at 0.349 µM. Also, in series [2], the Emax is 0% and the EC50 was over 30 µM.

For `CCCNC(=O)c1nc(N)c2cnn(Cc3ccc(CN4CCCC4)cc3)c2n1` [Example 11, 4-Amino-N-propyl-1-(4-(pyrrolidin-1-ylmethyl)benzyl)-1H-pyrazolo[3,4-d]pyrimidine-6-carboxamide], the figures for the Emax in series [1] and in series [2] were 85% and 0%, respectively. Besides, the values for the EC50 in series [1] and in series [2] were 0.335 µM and over 30 µM, respectively.

With `CCCCC(=O)c1nc(N)c2cnn(Cc3ccc(CN4CCCC4)cc3)c2n1` [Example 12], the Emax in series [1] was found to be 78%; in series [2] it was 5%. Moreover, the 50% effective concentration (EC50) in series [1] was 0.388 µM; in series [2], over 30 µM. Further, the IC50 is 16 µM in series [5], 16 µM in series [4] and over 30 µM in series [6].
